Assay results published in patent US20240408169A1 (priority 2023, published 2024).
*1 amine or outer side, *2 acyl side, *3 side chain or, on linkers, in order; H or OH if unused. Where a SMILES comes first, the peptide text is derived from it. Bridges are numbered along the chain shown (N, C = ends). [ ]: non-standard residue; d: D form. The star is where a group is joined. X128 = CC(C)C(=O)N1C2C=C(c3ccc(F)cc3C[C@@H](C(=O)[*:2])N(C)[*:1])CC1COC2; X150 = CC(C)C(=O)N1C2C=C(c3ccc(F)cc3C[C@@H](C(=O)[*:2])N(C)[*:1])CC1CC2; NMePhe(5-Cl,2-O(2-Pym)) = CN[C@@H](Cc1cc(Cl)ccc1Oc1ncccn1)C(=O)O; X166 = CN([C@@H](Cc1cc(F)ccc1C1=CC2COCC(C1)N2)C(=O)[*:2])[*:1]; X177 = CN([C@@H](Cc1cc(F)ccc1C1=CC2CCC(C1)N2)C(=O)[*:2])[*:1]; X189 = CN([C@@H](Cc1cc(Cl)ccc1-c1ccc2scnc2c1)C(=O)[*:2])[*:1]; X26 = CN([C@@H](Cc1cc(F)ccc1-c1cnn(C2CC2)c1)C(=O)[*:2])[*:1]; NMehhhLys(Me) = CN([C@@H](CCCCCCCN(C)[*:3])C(=O)[*:2])[*:1]; X180 = CN([C@@H](Cc1cc(F)ccc1-c1cnn2c1CCC2)C(=O)[*:2])[*:1]; X207 = CN([C@@H](Cc1cc(F)ccc1-c1cn(C)cn1)C(=O)[*:2])[*:1]; X44 = Cc1nnc(-c2ccc(Cl)cc2C[C@@H](C(=O)[*:2])N(C)[*:1])o1; NMe(hhhLys) = CN([C@@H](CCCCCCCN[*:3])C(=O)[*:2])[*:1]; Cyclobutanecarbonyl(1-CF3) = O=C(C1(C(F)(F)F)CCC1)*; cBuCO(3,3-F2-1-CF3) = O=C(C1(C(F)(F)F)CC(F)(F)C1)*; Pro(trans-4-F) = O=C(O)[C@@H]1C[C@@H](F)CN1; X27 = O=C([C@]1(C(F)(F)F)CCCCO1)*; Gly(cPr) = N[C@H](C(=O)O)C1CC1

What was measured:
CyclinE1/CDK2 = target: T1, CyclinE1/CDK2 (Homo sapiens, UniProt P24864); experiment: Fluorescence Polarization (FP) competitive binding assay, Cyclin E1/Cdk2; settings: 10 nM Cyclin E1/Cdk2, 2 nM FAM probe; average of 2-3 independent experiments; read-out: Cyclin E FP IC50;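 note: readings taken after two-hour equilibration at room temperature in HEPES buffer with NaCl, DTT, NP-40 and BSA, IC50 fitted from eight-concentration serial dilution series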
T1 construct: purchased Eurofins, discovery 14-475

CyclinA2/CDK2 = target: T2, CyclinA2/CDK2 (Homo sapiens, UniProt P20248); experiment: Fluorescence Polarization (FP) competitive binding assay, Cyclin A2/Cdk2; settings: 8 nM Cyclin A2/Cdk2, 2 nM FAM probe; average of 2-3 independent experiments; read-out: Cyclin A FP IC50;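 note: plates equilibrated two hours at room temperature before polarization reading, IC50 fitted from eight-concentration compound titration curves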
T2 construct: purchased CRELUX Protein Services

OVCAR3 cells = experiment: MTT proliferation assay, OVCAR3; assay type: cell-based; settings: 5 days compound exposure, 1:3 serial dilution starting at 10 μM;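 note: compound given as an 8- or 10-point series, one day after plating, with exposure covering roughly 3-4 cell doublings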
CyclinB1/CDK1 = target: T3, CyclinB1/CDK1 (Homo sapiens, UniProt P14635); experiment: Fluorescence Polarization (FP) competitive binding assay, Cyclin B1/Cdk1; settings: 10 nM Cyclin B1/Cdk1, 2 nM FAM probe; average of 2-3 independent experiments; read-out: Cyclin B FP IC50;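 note: fluorescence polarization read after equilibration at room temperature, with IC50 taken from serially diluted dose-response curves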
T3 construct: purchased Eurofins, discovery 14-450

NCI-H1048 cells = experiment: MTT proliferation assay, NCI-H1048; assay type: cell-based; settings: 5 days compound exposure, 1:3 serial dilution starting at 10 μM;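 note: Dose-response in 96-well plates over 8 or 10 concentration points, with exposure spanning 3-4 cell doublings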

Row | SMILES | IC50 (CyclinE1/CDK2) [µM] | IC50 (CyclinA2/CDK2) [µM] | GI50 (OVCAR3 cells) [µM] | IC50 (CyclinB1/CDK1) [µM] | GI50 (NCI-H1048 cells) [µM]
1 | CC(C)C[C@@H]1NC(=O)[C@@H](N(C)C(=O)[C@@H](NC(=O)[C@@H]2C[C@@H](F)CN2C(=O)[C@]2(C(F)(F)F)CCCCO2)C2CC2)CCCCCCCN(C)C(=O)[C@H](Cc2cc(F)ccc2-c2cnn(C3CC3)c2)N(C)C1=O [Example 146] (X27-[Pro(trans-4-F)][Gly(cPr)][NMehhhLys(Me)]L[X26]; lactam 3-C) | 0.1 | 0.03 | 0.02 | 0.02 | 0.02
2 | CC(C)C[C@@H]1NC(=O)[C@@H](N(C)C(=O)[C@@H](NC(=O)[C@@H]2C[C@@H](F)CN2C(=O)C2(C(F)(F)F)CC(F)(F)C2)C2CC2)CCCCCCCN(C)C(=O)[C@H](Cc2cc(F)ccc2-c2cnn3c2CCC3)N(C)C1=O [Example 148] ({cBuCO(3,3-F2-1-CF3)}-[Pro(trans-4-F)][Gly(cPr)][NMehhhLys(Me)]L[X180]; lactam 3-C) | 0.31 | 0.03 | 0.01 | 0.02 | 0.01
3 | CC(=O)N1C2C=C(c3ccc(F)cc3C[C@H]3C(=O)N(C)CCCCCCC[C@H](N(C)C(=O)[C@@H](NC(=O)[C@@H]4C[C@@H](F)CN4C(=O)C4(C(F)(F)F)CC(F)(F)C4)C4CC4)C(=O)N[C@@H](CC(C)C)C(=O)N3C)CC1CC2 (stereo partly drawn) [Example 149] | 0.56 | 0.02 | 0.04 | 0.02 | 0.03
4 | CC(C)C[C@@H]1NC(=O)[C@@H](N(C)C(=O)[C@@H](NC(=O)[C@@H]2C[C@@H](F)CN2C(=O)C2(C(F)(F)F)CC(F)(F)C2)C2CC2)CCCCCCCN(C)C(=O)[C@H](Cc2cc(F)ccc2C2=CC3CCC(C2)N3C(=O)C(C)C)N(C)C1=O (stereo partly drawn) [Example 150] ({cBuCO(3,3-F2-1-CF3)}-[Pro(trans-4-F)][Gly(cPr)][NMehhhLys(Me)]L[X150]; lactam 3-C) | 0.21 | 0.02 | 0.04 | 0.02 | 0.02
5 | CC(C)C[C@@H]1NC(=O)[C@@H](N(C)C(=O)[C@@H](NC(=O)[C@@H]2C[C@@H](F)CN2C(=O)C2(C(F)(F)F)CC(F)(F)C2)C2CC2)CCCCCCCN(C)C(=O)[C@H](Cc2cc(F)ccc2C2=CC3COCC(C2)N3C(=O)C(C)C)N(C)C1=O (stereo partly drawn) [Example 151] ({cBuCO(3,3-F2-1-CF3)}-[Pro(trans-4-F)][Gly(cPr)][NMehhhLys(Me)]L[X128]; lactam 3-C) | 0.22 | 0.02 | 0.01 | 0.02 | 0.01
6 | CC(C)C[C@@H]1NC(=O)[C@@H](N(C)C(=O)[C@@H](NC(=O)[C@@H]2C[C@@H](F)CN2C(=O)C2(C(F)(F)F)CC(F)(F)C2)C2CC2)CC=CCCCCNC(=O)[C@H](Cc2cc(Cl)ccc2Oc2ncccn2)N(C)C1=O [Example 152] | 1.9 | 1.02 | 0.45 | 0.02 | 0.5
7 | CC(C)C[C@@H]1NC(=O)[C@@H](N(C)C(=O)[C@@H](NC(=O)[C@@H]2C[C@@H](F)CN2C(=O)C2(C(F)(F)F)CC(F)(F)C2)C2CC2)CC=CCCCCN(C)C(=O)[C@H](Cc2cc(Cl)ccc2Oc2ncccn2)N(C)C1=O [Example 153] | 1 | 0.47 | 0.14 | 0.02 | 0.11
8 | CC(C)C[C@@H]1NC(=O)[C@@H](N(C)C(=O)[C@@H](NC(=O)[C@@H]2C[C@@H](F)CN2C(=O)C2(C(F)(F)F)CC(F)(F)C2)C2CC2)CCCCCCCNC(=O)[C@H](Cc2cc(Cl)ccc2Oc2ncccn2)N(C)C1=O [Example 154] ({cBuCO(3,3-F2-1-CF3)}-[Pro(trans-4-F)][Gly(cPr)][NMe(hhhLys)]L[NMePhe(5-Cl,2-O(2-Pym))]; lactam 3-C) | 0.48 | 0.15 | 0.02 | 0.02 | 0.02
9 | CC(C)C[C@@H]1NC(=O)[C@@H](N(C)C(=O)[C@@H](NC(=O)[C@@H]2C[C@@H](F)CN2C(=O)C2(C(F)(F)F)CC(F)(F)C2)C2CC2)CCCCCCCN(C)C(=O)[C@H](Cc2cc(Cl)ccc2Oc2ncccn2)N(C)C1=O [Example 155] ({cBuCO(3,3-F2-1-CF3)}-[Pro(trans-4-F)][Gly(cPr)][NMehhhLys(Me)]L[NMePhe(5-Cl,2-O(2-Pym))]; lactam 3-C) | 0.41 | 0.1 | 0.02 | 0.02 | 0.01
10 | CC(C)C[C@@H]1NC(=O)[C@@H](N(C)C(=O)[C@@H](NC(=O)[C@@H]2C[C@@H](F)CN2C(=O)C2(C(F)(F)F)CCC2)C2CC2)CC=CCCCCN(C)C(=O)[C@H](Cc2cc(Cl)ccc2Oc2ncccn2)N(C)C1=O [Example 157] | 0.41 | 0.36 | 0.14 | 0.02 | 0.08
11 | CC(C)C[C@@H]1NC(=O)[C@@H](N(C)C(=O)[C@@H](NC(=O)[C@@H]2C[C@@H](F)CN2C(=O)C2(C(F)(F)F)CCC2)C2CC2)CCCCCCCNC(=O)[C@H](Cc2cc(Cl)ccc2Oc2ncccn2)N(C)C1=O [Example 158] ({Cyclobutanecarbonyl(1-CF3)}-[Pro(trans-4-F)][Gly(cPr)][NMe(hhhLys)]L[NMePhe(5-Cl,2-O(2-Pym))]; lactam 3-C) | 0.21 | 0.1 | 0.02 | 0.02 | 0.02
12 | Cc1nnc(-c2ccc(Cl)cc2C[C@H]2C(=O)NCCCCCCC[C@H](N(C)C(=O)[C@@H](NC(=O)[C@@H]3C[C@@H](F)CN3C(=O)C3(C(F)(F)F)CCC3)C3CC3)C(=O)N[C@@H](CC(C)C)C(=O)N2C)o1 [Example 161] ({Cyclobutanecarbonyl(1-CF3)}-[Pro(trans-4-F)][Gly(cPr)][NMe(hhhLys)]L[X44]; lactam 3-C) | 0.12 | 0.02 | 0.02 | 0.02 | 0.02
13 | Cc1nnc(-c2ccc(Cl)cc2C[C@H]2C(=O)N(C)CCCCCCC[C@H](N(C)C(=O)[C@@H](NC(=O)[C@@H]3C[C@@H](F)CN3C(=O)C3(C(F)(F)F)CC(F)(F)C3)C3CC3)C(=O)N[C@@H](CC(C)C)C(=O)N2C)o1 [Example 162] ({cBuCO(3,3-F2-1-CF3)}-[Pro(trans-4-F)][Gly(cPr)][NMehhhLys(Me)]L[X44]; lactam 3-C) | 0.22 | 0.02 | 0.01 | 0.02 | 0.01
14 | Cc1nnc(-c2ccc(Cl)cc2C[C@H]2C(=O)N(C)CCCCCCC[C@H](N(C)C(=O)[C@@H](NC(=O)[C@@H]3C[C@@H](F)CN3C(=O)C3(C(F)(F)F)CCC3)C3CC3)C(=O)N[C@@H](CC(C)C)C(=O)N2C)o1 [Example 163] ({Cyclobutanecarbonyl(1-CF3)}-[Pro(trans-4-F)][Gly(cPr)][NMehhhLys(Me)]L[X44]; lactam 3-C) | 0.1 | 0.02 | 0.01 | 0.02 | 0.01
15 | CC(C)C[C@@H]1NC(=O)[C@@H](N(C)C(=O)[C@@H](NC(=O)[C@@H]2C[C@@H](F)CN2C(=O)C2(C(F)(F)F)CC(F)(F)C2)C2CC2)CCCCCCCN(C)C(=O)[C@H](Cc2cc(F)ccc2-c2cn(C)cn2)N(C)C1=O [Example 164] ({cBuCO(3,3-F2-1-CF3)}-[Pro(trans-4-F)][Gly(cPr)][NMehhhLys(Me)]L[X207]; lactam 3-C) | 0.93 | 0.07 | 0.03 | 0.02 | 0.03
16 | CC(C)C[C@@H]1NC(=O)[C@@H](N(C)C(=O)[C@@H](NC(=O)[C@@H]2C[C@@H](F)CN2C(=O)C2(C(F)(F)F)CC(F)(F)C2)C2CC2)CCCCCCCN(C)C(=O)[C@H](Cc2cc(F)ccc2C2=CC3CCC(C2)N3)N(C)C1=O (stereo partly drawn) [Example 165, (2S,4R)—N-((1S)-2-(((3S,6S,9S)-3-(2-(8-azabicyclo[3.2.1]oct-2-en-3-yl)-5-fluorobenzyl)-6-isobutyl-1,4-dimethyl-2,5,8-trioxo-1,4,7-triazacyclohexadecan-9-yl)(methyl)amino)-1-cyclopropyl-2-oxoethyl)-1-(3,3-difluoro-1-(trifluoromethyl)cyclobutane-1-carbonyl)-4-fluoropyrrolidine-2-carboxamide] ({cBuCO(3,3-F2-1-CF3)}-[Pro(trans-4-F)][Gly(cPr)][NMehhhLys(Me)]L[X177]; lactam 3-C) | 5.47 | 0.11 | 1.67 | 0.02 | 0.34
17 | CC(C)C[C@@H]1NC(=O)[C@@H](N(C)C(=O)[C@@H](NC(=O)[C@@H]2C[C@@H](F)CN2C(=O)C2(C(F)(F)F)CC(F)(F)C2)C2CC2)CCCCCCCN(C)C(=O)[C@H](Cc2cc(F)ccc2C2=CC3COCC(C2)N3)N(C)C1=O (stereo partly drawn) [Example 166] ({cBuCO(3,3-F2-1-CF3)}-[Pro(trans-4-F)][Gly(cPr)][NMehhhLys(Me)]L[X166]; lactam 3-C) | 2.3 | 0.06 | 0.1 | 0.02 | 0.04
18 | CC(C)C[C@@H]1NC(=O)[C@@H](N(C)C(=O)[C@@H](NC(=O)[C@@H]2C[C@@H](F)CN2C(=O)C2(C(F)(F)F)CC(F)(F)C2)C2CC2)CCCCCCCN(C)C(=O)[C@H](Cc2cc(Cl)ccc2-c2ccc3scnc3c2)N(C)C1=O [Example 169] ({cBuCO(3,3-F2-1-CF3)}-[Pro(trans-4-F)][Gly(cPr)][NMehhhLys(Me)]L[X189]; lactam 3-C) | 1.09 | 0.03 | 0.03 | 0.02 | 0.02
